According to ChEMBL document CHEMBL5463727, “Data for DCP probe SGK3-PROTAC1” (2023):

Assays:
Conditions in all cases: Compound concentration 1.0 uM
[1] = target: Serine/threonine-protein kinase 3 (Homo sapiens) (UniProt Q13188); experiment: % Activity remaining of MST2 in the Dundee kinase panel at 1.0 µM
[2] = target: Serine/threonine-protein kinase tousled-like 1 (Homo sapiens) (UniProt Q9UKI8); experiment: % Activity remaining of TLK1 in the Dundee kinase panel at 1.0 µM
[3] = target: Serine/threonine-protein kinase BRSK2 (Homo sapiens) (UniProt Q8IWQ3); experiment: % Activity remaining of BRSK2 in the Dundee kinase panel at 1.0 µM
[4] = target: 5'-AMP-activated protein kinase catalytic subunit alpha-1 (Homo sapiens) (UniProt Q13131); experiment: % Activity remaining of AMPK (hum) in the Dundee kinase panel at 1.0 µM
[5] = target: Mitogen-activated protein kinase 11 (Homo sapiens) (UniProt Q15759); experiment: % Activity remaining of p38 beta MAPK in the Dundee kinase panel at 1.0 µM
Mitogen-activated protein kinase 11 (Homo sapiens), sequence (Q15759 whole entry): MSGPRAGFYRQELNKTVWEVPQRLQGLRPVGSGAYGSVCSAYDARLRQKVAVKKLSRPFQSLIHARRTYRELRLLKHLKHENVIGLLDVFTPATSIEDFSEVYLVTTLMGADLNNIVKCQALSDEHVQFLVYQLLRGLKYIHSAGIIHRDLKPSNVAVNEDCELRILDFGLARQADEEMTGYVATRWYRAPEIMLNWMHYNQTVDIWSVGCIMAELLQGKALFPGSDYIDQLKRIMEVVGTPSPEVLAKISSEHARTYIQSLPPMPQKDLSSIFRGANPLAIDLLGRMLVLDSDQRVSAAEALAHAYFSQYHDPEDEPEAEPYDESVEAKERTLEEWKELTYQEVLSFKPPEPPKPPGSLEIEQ

[6] = target: Protein kinase C zeta type (Homo sapiens) (UniProt Q05513); experiment: % Activity remaining of PKC zeta in the Dundee kinase panel at 1.0 µM
Protein kinase C zeta type (Homo sapiens), sequence (Q05513 whole entry): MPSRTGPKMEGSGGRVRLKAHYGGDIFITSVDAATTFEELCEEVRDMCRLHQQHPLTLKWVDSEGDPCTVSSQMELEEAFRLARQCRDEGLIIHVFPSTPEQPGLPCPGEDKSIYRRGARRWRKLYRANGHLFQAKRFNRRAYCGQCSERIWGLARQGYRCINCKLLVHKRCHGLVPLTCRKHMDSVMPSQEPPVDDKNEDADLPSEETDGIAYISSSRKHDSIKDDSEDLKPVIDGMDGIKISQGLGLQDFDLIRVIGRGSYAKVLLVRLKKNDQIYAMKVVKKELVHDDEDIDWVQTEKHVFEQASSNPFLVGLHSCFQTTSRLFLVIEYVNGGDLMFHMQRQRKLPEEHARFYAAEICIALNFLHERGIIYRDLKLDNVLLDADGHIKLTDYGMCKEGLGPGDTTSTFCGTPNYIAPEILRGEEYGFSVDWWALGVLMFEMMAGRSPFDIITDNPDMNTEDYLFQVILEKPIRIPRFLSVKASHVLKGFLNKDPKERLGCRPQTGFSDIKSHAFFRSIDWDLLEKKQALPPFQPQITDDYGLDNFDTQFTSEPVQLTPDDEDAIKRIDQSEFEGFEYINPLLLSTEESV

[7] = target: Mitogen-activated protein kinase kinase kinase 5 (Homo sapiens) (UniProt Q99683); experiment: % Activity remaining of ASK1 in the Dundee kinase panel at 1.0 µM
[8] = target: Mitogen-activated protein kinase 7 (Homo sapiens) (UniProt Q13164); experiment: % Activity remaining of ERK5 in the Dundee kinase panel at 1.0 µM
[9] = target: CDK9/cyclin T1 (Homo sapiens) (UniProt O60563+P50750); experiment: % Activity remaining of CDK9-Cyclin T1 in the Dundee kinase panel at 1.0 µM; assay type: protein-complex assay
[10] = target: Dual specificity tyrosine-phosphorylation-regulated kinase 2 (Homo sapiens) (UniProt Q92630); experiment: % Activity remaining of DYRK2 in the Dundee kinase panel at 1.0 µM
[11] = target: Serine/threonine-protein kinase Chk1 (Homo sapiens) (UniProt O14757); experiment: % Activity remaining of CHK1 in the Dundee kinase panel at 1.0 µM
[12] = target: Dual specificity protein kinase TTK (Homo sapiens) (UniProt P33981); experiment: % Activity remaining of TTK in the Dundee kinase panel at 1.0 µM
Dual specificity protein kinase TTK (Homo sapiens), sequence (P33981 whole entry): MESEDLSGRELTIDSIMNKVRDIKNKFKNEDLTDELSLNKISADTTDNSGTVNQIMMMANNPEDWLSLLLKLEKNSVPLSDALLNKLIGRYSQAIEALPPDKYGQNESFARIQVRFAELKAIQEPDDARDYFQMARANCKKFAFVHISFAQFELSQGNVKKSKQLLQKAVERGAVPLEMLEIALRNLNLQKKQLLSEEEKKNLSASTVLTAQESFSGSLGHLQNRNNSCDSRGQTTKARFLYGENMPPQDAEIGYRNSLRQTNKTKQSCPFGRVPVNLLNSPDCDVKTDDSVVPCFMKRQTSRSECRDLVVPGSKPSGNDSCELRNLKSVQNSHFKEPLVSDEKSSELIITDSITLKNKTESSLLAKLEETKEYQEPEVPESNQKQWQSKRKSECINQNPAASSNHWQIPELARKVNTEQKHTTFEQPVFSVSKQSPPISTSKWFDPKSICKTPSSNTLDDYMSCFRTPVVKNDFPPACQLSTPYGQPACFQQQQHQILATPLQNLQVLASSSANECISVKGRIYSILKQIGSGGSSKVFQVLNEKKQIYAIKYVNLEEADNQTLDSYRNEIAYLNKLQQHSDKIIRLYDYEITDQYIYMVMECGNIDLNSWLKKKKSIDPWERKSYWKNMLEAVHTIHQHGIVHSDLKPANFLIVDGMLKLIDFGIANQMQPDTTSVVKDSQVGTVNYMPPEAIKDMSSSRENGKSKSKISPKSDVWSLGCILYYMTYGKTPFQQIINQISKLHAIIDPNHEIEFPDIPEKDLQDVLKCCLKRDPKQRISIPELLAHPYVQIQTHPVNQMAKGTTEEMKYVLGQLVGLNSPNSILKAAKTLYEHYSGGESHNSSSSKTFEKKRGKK

[13] = target: Tyrosine-protein kinase ABL1 (Homo sapiens) (UniProt P00519); experiment: % Activity remaining of ABL in the Dundee kinase panel at 1.0 µM
[14] = target: Serine/threonine-protein kinase 16 (Homo sapiens) (UniProt O75716); experiment: % Activity remaining of MPSK1 in the Dundee kinase panel at 1.0 µM
Serine/threonine-protein kinase 16 (Homo sapiens), sequence (O75716 whole entry): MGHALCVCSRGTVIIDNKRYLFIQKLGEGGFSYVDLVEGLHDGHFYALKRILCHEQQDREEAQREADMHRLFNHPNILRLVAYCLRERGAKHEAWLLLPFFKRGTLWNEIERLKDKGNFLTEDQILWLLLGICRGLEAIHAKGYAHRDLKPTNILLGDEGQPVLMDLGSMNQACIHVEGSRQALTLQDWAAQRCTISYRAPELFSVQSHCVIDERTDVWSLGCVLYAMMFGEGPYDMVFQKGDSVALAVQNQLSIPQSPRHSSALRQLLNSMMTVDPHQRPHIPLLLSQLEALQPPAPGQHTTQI

[15] = target: Ribosomal protein S6 kinase alpha-1 (Homo sapiens) (UniProt Q15418); experiment: % Activity remaining of RSK1 in the Dundee kinase panel at 1.0 µM
[16] = target: Serine/threonine-protein kinase BRSK1 (Homo sapiens) (UniProt Q8TDC3); experiment: % Activity remaining of BRSK1 in the Dundee kinase panel at 1.0 µM
[17] = target: Homeodomain-interacting protein kinase 3 (Homo sapiens) (UniProt Q9H422); experiment: % Activity remaining of HIPK3 in the Dundee kinase panel at 1.0 µM
[18] = target: Serine/threonine-protein kinase 26 (Homo sapiens) (UniProt Q9P289); experiment: % Activity remaining of MST4 in the Dundee kinase panel at 1.0 µM
[19] = target: Ephrin type-B receptor 3 (Homo sapiens) (UniProt P54753); experiment: % Activity remaining of EPH-B3 in the Dundee kinase panel at 1.0 µM
[20] = target: Serine/threonine-protein kinase STK11 (Homo sapiens) (UniProt Q15831); experiment: % Activity remaining of LKB1 in the Dundee kinase panel at 1.0 µM
Serine/threonine-protein kinase STK11 (Homo sapiens), sequence (Q15831 whole entry): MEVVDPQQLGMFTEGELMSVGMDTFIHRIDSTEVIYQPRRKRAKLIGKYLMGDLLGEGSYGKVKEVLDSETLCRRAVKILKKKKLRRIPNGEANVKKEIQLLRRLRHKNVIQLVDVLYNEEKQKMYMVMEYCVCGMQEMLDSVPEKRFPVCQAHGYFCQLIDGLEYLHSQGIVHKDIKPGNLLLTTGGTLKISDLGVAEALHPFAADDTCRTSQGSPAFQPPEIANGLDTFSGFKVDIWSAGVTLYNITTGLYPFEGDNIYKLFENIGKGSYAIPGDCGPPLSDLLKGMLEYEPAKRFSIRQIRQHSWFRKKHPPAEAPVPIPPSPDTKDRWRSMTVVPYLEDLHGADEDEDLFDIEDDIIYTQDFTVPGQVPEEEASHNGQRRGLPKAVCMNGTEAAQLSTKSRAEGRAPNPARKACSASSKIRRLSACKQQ

[21] = target: Mitogen-activated protein kinase kinase kinase 7 (Homo sapiens) (UniProt O43318); experiment: % Activity remaining of TAK1 in the Dundee kinase panel at 1.0 µM
[22] = target: Receptor-interacting serine/threonine-protein kinase 2 (Homo sapiens) (UniProt O43353); experiment: % Activity remaining of RIPK2 in the Dundee kinase panel at 1.0 µM
[23] = target: Serine/threonine-protein kinase TAO1 (Homo sapiens) (UniProt Q7L7X3); experiment: % Activity remaining of TAO1 in the Dundee kinase panel at 1.0 µM
[24] = target: Ephrin type-B receptor 4 (Homo sapiens) (UniProt P54760); experiment: % Activity remaining of EPH-B4 in the Dundee kinase panel at 1.0 µM
[25] = target: Myosin light chain kinase, smooth muscle (Homo sapiens) (UniProt Q15746); experiment: % Activity remaining of SmMLCK in the Dundee kinase panel at 1.0 µM
[26] = target: Mitogen-activated protein kinase 9 (Homo sapiens) (UniProt P45984); experiment: % Activity remaining of JNK2 in the Dundee kinase panel at 1.0 µM
Mitogen-activated protein kinase 9 (Homo sapiens), sequence (P45984 whole entry, looked up): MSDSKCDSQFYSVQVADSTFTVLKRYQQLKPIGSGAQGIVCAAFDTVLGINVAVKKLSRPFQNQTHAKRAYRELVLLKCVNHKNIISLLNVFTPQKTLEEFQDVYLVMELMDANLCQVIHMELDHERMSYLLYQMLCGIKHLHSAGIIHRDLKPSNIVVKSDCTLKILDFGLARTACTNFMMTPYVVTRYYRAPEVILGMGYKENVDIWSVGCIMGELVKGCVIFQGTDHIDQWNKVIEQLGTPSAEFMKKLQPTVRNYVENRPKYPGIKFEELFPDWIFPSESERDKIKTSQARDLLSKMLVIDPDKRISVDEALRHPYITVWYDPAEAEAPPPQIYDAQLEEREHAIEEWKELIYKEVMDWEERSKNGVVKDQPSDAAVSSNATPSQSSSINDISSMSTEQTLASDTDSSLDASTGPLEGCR

[27] = target: Maternal embryonic leucine zipper kinase (Homo sapiens) (UniProt Q14680); experiment: % Activity remaining of MELK in the Dundee kinase panel at 1.0 µM
Maternal embryonic leucine zipper kinase (Homo sapiens), sequence (Q14680 whole entry, looked up): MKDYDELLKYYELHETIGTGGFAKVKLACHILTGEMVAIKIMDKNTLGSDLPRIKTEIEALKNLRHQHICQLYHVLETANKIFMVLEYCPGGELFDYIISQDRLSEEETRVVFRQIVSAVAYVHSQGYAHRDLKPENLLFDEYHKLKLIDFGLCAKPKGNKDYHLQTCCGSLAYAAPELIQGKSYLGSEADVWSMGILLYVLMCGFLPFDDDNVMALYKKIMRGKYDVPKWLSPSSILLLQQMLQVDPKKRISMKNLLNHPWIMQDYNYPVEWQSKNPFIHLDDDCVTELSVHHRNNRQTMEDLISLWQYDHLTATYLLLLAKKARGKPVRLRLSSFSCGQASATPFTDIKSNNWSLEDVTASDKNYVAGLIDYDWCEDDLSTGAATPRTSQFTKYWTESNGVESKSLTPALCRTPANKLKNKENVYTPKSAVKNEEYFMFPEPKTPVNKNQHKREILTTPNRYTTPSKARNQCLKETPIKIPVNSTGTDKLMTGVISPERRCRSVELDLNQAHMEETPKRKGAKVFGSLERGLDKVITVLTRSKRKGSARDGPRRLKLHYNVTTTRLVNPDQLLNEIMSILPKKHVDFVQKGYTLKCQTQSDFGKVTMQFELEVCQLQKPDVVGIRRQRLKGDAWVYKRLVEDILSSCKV

[28] = target: Protein kinase C alpha type (Homo sapiens) (UniProt P17252); experiment: % Activity remaining of PKC alpha in the Dundee kinase panel at 1.0 µM
[29] = target: Mitogen-activated protein kinase kinase kinase 11 (Homo sapiens) (UniProt Q16584); experiment: % Activity remaining of MLK3 in the Dundee kinase panel at 1.0 µM
[30] = target: Platelet-derived growth factor receptor alpha (Homo sapiens) (UniProt P16234); experiment: % Activity remaining of PDGFRA in the Dundee kinase panel at 1.0 µM
[31] = target: Dual specificity mitogen-activated protein kinase kinase 2 (Homo sapiens) (UniProt P36507); experiment: % Activity remaining of MKK2 in the Dundee kinase panel at 1.0 µM
[32] = target: Ephrin type-A receptor 4 (Homo sapiens) (UniProt P54764); experiment: % Activity remaining of EPH-A4 in the Dundee kinase panel at 1.0 µM
[33] = target: Ribosomal protein S6 kinase alpha-5 (Homo sapiens) (UniProt O75582); experiment: % Activity remaining of MSK1 in the Dundee kinase panel at 1.0 µM
[34] = target: cAMP-dependent protein kinase catalytic subunit alpha (Homo sapiens) (UniProt P17612); experiment: % Activity remaining of PKA in the Dundee kinase panel at 1.0 µM
[35] = target: MAP/microtubule affinity-regulating kinase 4 (Homo sapiens) (UniProt Q96L34); experiment: % Activity remaining of MARK4 in the Dundee kinase panel at 1.0 µM
MAP/microtubule affinity-regulating kinase 4 (Homo sapiens), sequence (Q96L34 whole entry): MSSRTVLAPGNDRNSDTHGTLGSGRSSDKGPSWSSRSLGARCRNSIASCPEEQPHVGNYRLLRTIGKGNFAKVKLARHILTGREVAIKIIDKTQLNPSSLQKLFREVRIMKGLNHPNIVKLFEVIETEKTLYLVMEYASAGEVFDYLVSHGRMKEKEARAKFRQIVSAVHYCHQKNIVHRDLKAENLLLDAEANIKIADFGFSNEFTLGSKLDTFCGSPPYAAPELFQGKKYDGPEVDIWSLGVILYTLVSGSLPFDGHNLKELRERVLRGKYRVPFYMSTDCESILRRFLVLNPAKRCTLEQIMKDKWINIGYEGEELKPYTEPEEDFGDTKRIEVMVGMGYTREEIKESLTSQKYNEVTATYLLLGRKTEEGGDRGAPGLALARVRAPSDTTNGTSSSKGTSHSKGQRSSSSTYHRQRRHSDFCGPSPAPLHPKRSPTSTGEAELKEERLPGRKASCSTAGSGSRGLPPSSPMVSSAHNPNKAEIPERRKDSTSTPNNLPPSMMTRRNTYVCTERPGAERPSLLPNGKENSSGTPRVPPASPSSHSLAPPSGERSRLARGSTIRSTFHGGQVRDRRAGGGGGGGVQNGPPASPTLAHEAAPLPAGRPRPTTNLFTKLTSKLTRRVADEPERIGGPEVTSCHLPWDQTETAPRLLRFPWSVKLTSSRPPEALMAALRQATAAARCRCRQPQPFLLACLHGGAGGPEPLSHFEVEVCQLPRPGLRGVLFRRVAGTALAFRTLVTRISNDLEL

[36] = target: Inhibitor of nuclear factor kappa-B kinase subunit beta (Homo sapiens) (UniProt O14920); experiment: % Activity remaining of IKK beta in the Dundee kinase panel at 1.0 µM
[37] = target: Serine/threonine-protein kinase D1 (Homo sapiens) (UniProt Q15139); experiment: % Activity remaining of PKD1 in the Dundee kinase panel at 1.0 µM
[38] = target: Insulin receptor-related protein (Homo sapiens) (UniProt P14616); experiment: % Activity remaining of IRR in the Dundee kinase panel at 1.0 µM
[39] = target: Dual specificity tyrosine-phosphorylation-regulated kinase 3 (Homo sapiens) (UniProt O43781); experiment: % Activity remaining of DYRK3 in the Dundee kinase panel at 1.0 µM

Measured: % Activity remaining

Serine/threonine-protein kinase 3 (Homo sapiens), sequence (Q13188 whole entry): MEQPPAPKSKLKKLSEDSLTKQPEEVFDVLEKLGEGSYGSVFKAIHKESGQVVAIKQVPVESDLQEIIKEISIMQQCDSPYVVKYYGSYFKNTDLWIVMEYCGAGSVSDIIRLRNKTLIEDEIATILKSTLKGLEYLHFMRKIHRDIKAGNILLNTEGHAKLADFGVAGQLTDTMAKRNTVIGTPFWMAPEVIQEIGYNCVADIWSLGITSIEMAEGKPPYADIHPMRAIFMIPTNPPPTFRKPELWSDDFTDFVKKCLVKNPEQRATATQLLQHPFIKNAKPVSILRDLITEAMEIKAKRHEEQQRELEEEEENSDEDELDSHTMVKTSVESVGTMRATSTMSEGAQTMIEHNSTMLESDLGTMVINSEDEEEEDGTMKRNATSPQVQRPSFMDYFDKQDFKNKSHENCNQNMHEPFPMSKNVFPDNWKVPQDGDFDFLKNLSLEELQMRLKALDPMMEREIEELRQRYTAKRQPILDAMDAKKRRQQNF

Cc1ccc(F)c(S(=O)(=O)Nc2ccc(-c3nc(OC[C@H]4CN(CCCCCCOCCOCCOCC(=O)N[C@H](C(=O)N5C[C@H](O)C[C@H]5C(=O)NCc5ccc(-c6scnc6C)cc5)C(C)(C)C)CCO4)c4cn[nH]c4n3)cc2)c1
inactive: [1] 112% | [2] 102% | [3] 97.2% | [4] 105% | [5] 107% | [6] 96.5% | [7] 113% | [8] 102% | [9] 103% | [10] 102% | [11] 111% | [12] 89.4% | [13] 111% | [14] 127% | [15] 83.2% | [16] 108% | [17] 111% | [18] 106% | [19] 91.6% | [20] 105% | [21] 108% | [22] 88.4% | [23] 99% | [24] 107% | [25] 52.9% | [26] 117% | [27] 91.5% | [28] 121% | [29] 70.5% | [30] 101% | [31] 114% | [32] 106% | [33] 49.6% | [34] 108% | [35] 105% | [36] 99.9% | [37] 94% | [38] 103% | [39] 102%

Cc1ccc(F)c(S(=O)(=O)Nc2ccc(-c3nc(OC[C@H]4CN(CCCCCCOCCOCCOCC(=O)N[C@H](C(=O)N5C[C@@H](O)C[C@H]5C(=O)NCc5ccc(-c6scnc6C)cc5)C(C)(C)C)CCO4)c4cn[nH]c4n3)cc2)c1
inactive: [1] 100% | [2] 109% | [3] 101% | [4] 108% | [5] 112% | [6] 110% | [7] 102% | [8] 108% | [9] 105% | [10] 97.3% | [11] 126% | [12] 99.4% | [13] 112% | [14] 139% | [15] 90.2% | [16] 106% | [17] 105% | [18] 99% | [19] 104% | [20] 112% | [21] 107% | [22] 94.2% | [23] 105% | [24] 108% | [25] 70.7% | [26] 109% | [27] 99.5% | [28] 118% | [29] 75.6% | [30] 94.8% | [31] 124% | [32] 89.4% | [33] 56.5% | [34] 111% | [35] 100% | [36] 101% | [37] 91.7% | [38] 89.9% | [39] 104%
